Test results published in ChEMBL document CHEMBL2074267, “Dexamethasone modulation of multidrug transporters in normal tissues” (FEBS Lett, 1999).

Tests used:
[1] = molecular target: T1, ATP-binding cassette sub-family C member 2 (Rattus norvegicus, UniProt Q63120); assay: (§1) TP_TRANSPORTER: Western in vivo, kidney of SD rat; format: functional, organism-based, Sprague-Dawley
[2] = molecular target: Multidrug resistance protein 1a (Rattus norvegicus) (UniProt Q6PSM0); assay: as §1; format: functional, organism-based; conditions: Sprague-Dawley
Sequence of Multidrug resistance protein 1a (Rattus norvegicus) (Q6PSM0 as listed by the source): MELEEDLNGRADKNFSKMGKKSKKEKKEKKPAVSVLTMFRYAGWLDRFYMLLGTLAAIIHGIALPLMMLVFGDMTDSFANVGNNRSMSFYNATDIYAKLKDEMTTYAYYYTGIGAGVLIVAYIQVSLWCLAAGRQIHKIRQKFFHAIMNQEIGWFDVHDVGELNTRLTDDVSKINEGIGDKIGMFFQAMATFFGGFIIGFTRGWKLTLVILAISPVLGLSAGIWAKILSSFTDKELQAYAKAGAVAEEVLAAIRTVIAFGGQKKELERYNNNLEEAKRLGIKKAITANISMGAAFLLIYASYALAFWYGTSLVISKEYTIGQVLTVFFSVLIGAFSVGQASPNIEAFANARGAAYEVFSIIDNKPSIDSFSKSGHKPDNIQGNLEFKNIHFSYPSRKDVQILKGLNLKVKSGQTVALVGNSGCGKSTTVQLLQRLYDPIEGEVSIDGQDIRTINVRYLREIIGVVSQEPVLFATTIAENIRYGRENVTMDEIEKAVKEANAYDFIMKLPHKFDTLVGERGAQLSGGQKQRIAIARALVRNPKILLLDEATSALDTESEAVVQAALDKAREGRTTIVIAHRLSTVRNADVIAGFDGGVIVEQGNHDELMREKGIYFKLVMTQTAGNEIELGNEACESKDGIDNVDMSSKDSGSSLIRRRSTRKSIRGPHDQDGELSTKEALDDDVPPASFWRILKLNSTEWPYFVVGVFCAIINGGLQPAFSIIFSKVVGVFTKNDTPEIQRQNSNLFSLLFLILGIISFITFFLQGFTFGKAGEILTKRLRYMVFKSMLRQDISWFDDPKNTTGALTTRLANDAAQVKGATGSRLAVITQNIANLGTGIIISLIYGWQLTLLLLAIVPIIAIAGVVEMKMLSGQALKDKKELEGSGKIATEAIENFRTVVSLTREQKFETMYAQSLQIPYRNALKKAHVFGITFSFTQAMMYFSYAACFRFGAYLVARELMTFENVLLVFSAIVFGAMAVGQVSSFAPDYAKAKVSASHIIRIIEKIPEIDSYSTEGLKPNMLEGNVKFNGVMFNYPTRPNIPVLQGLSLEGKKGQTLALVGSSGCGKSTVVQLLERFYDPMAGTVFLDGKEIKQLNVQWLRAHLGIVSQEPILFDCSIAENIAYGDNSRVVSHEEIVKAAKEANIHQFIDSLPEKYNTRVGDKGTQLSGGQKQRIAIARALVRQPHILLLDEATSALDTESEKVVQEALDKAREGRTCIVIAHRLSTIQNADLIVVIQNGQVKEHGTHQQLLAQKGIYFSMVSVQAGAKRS

[3] = molecular target: T1, ATP-binding cassette sub-family C member 2; assay: TP_TRANSPORTER: Western in vivo, liver of SD rat; format: functional, organism-based, Sprague-Dawley

T1 sequence (Q63120 whole entry): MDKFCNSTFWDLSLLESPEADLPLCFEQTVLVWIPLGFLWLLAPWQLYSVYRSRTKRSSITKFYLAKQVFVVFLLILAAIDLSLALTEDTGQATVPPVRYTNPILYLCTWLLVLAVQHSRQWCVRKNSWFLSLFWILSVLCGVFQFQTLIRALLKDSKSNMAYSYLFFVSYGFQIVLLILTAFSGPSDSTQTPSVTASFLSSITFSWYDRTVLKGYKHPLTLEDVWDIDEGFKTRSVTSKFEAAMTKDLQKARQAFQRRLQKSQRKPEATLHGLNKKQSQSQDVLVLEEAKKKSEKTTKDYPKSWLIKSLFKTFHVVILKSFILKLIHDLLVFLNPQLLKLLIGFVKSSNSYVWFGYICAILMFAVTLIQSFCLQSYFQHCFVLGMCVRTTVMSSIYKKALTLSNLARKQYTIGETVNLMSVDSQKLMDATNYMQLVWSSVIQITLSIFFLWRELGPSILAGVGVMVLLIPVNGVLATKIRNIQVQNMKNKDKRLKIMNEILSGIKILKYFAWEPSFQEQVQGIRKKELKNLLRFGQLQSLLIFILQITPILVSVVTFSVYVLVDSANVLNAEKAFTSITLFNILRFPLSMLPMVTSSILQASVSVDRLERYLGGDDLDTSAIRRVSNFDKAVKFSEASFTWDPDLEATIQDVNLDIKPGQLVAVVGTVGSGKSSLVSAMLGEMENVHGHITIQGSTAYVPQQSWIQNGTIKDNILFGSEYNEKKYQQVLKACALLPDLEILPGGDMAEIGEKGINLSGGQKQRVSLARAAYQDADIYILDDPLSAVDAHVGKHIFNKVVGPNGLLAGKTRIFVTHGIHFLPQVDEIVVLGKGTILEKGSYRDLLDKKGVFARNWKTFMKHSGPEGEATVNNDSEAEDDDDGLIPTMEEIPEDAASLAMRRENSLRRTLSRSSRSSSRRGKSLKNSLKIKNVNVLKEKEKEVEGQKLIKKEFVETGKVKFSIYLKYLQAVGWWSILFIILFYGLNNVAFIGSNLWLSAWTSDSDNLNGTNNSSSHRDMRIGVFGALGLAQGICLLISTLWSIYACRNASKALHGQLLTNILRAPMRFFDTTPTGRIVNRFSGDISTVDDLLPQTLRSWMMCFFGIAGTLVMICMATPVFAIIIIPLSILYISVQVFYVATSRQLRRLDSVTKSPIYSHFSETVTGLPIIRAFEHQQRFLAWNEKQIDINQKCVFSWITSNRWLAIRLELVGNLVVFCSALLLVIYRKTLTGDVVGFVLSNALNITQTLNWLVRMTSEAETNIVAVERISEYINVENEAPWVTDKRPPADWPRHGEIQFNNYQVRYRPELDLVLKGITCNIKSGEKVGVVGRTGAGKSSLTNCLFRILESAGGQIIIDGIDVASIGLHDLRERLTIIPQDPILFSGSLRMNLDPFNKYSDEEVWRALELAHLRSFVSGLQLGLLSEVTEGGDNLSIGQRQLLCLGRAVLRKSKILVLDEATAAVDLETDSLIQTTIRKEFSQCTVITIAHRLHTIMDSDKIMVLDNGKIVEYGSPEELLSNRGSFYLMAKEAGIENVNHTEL

Activity [1]: inducer [+] | Activity [2]: inducer [Decrease] | Activity [3]: inducer [+]
SMILES: C[C@@H]1C[C@H]2[C@@H]3CCC4=CC(=O)C=C[C@]4(C)[C@@]3(F)[C@@H](O)C[C@]2(C)[C@@]1(O)C(=O)CO [DEXAMETHASONE]
